Results published in patent US20240368159A1, “HPK1 DEGRADERS, COMPOSITIONS COMPRISING THE HPK1 DEGRADER, AND METHODS OF USING THE SAME” (BIOFRONT LTD, priority 2021, published 2024).

How the values were obtained:
[1] = target: T1, HPK1 protein (Homo sapiens, UniProt Q92918); assay: HPK1 enzyme inhibition assay (ADP-Glo); assay type: biochemical; conditions: MBP substrate, ATP, ADP-Glo readout
T1 construct: purchased Signal Chem M23-11G-10
T1 sequence (Q92918 1-346 limits assumed): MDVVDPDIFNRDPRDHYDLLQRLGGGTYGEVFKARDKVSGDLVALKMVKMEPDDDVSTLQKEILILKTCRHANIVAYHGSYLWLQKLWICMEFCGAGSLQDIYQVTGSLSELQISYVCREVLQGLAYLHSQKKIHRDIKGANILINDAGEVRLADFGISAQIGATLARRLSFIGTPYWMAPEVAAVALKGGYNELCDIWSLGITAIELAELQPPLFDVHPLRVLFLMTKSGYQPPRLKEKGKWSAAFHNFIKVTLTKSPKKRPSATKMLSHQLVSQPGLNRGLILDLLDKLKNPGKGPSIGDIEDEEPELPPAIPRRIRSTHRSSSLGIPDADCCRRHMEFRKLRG
Method in brief: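 Recombinant human HPK1 preincubated with compound 60 min at 25 °C, then reaction with MBP (0.2 ug/ul, 2× stock) and ATP (20 μM, 2× stock) 60 min at 25 °C. ADP formed detected by ADP-Glo after ATP depletion and conversion to ATP; IC50 calculated from signal.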

[2] = target: T2, HPK1 protein (Homo sapiens, UniProt Q92918); assay: HPK1 protein degradation in human PBMC (western blot); assay type: cell-based; conditions: 18 h incubation
T2 construct: Frozen human PBMC were purchased from Shanghai OribioTech; host or cells: human PBMC
Description: HPK1 protein degradation in human PBMC: Frozen human PBMC were purchased from Shanghai OribioTech and recovered with culture medium (RMPI1640) prior to use. The cells were then incubated with a variety of concentrations of compound. After incubation for 18 h, the cells were collected and lysed. The protein concentration was determined by BCA protein assay kit from Thermo (23227). The HPK1 protein level was determined by western blots, using anti-human HPK1 polyclonal antibody from CST (4472S). Proteins were loaded into each well of the pre-casting gels and subjected to electrophoretic separation by SDS-PAGE. The protein resolved by SDS-PAGE were transferred to PVDF, blocked by 5% skim milk, and probed with anti-human HPK1 antibody or β-actin antibody from CST (3700S), using standard western blotting procedure.
T2 sequence (Q92918 whole entry): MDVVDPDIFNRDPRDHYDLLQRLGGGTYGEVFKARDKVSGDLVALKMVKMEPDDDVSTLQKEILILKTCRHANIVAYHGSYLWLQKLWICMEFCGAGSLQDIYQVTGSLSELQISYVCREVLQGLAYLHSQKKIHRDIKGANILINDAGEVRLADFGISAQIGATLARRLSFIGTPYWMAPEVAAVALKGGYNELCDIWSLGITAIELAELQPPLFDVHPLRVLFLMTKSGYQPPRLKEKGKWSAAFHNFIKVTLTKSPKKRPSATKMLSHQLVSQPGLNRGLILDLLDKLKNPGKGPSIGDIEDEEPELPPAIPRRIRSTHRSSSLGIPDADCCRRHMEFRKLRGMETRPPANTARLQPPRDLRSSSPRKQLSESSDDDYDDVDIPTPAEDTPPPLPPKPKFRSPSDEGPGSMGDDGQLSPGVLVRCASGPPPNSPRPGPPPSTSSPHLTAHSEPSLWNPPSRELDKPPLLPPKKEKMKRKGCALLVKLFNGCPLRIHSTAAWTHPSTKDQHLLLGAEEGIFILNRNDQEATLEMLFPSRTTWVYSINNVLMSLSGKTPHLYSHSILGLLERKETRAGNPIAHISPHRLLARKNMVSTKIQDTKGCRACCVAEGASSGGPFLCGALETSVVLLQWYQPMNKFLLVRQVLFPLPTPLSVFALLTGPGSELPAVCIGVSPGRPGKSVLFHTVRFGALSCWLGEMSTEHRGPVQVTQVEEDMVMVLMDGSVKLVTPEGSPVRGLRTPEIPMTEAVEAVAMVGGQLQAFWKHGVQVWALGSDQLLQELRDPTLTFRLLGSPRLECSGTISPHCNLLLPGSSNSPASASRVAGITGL

[3] = target: T3, HPK1 protein (Mus musculus, UniProt P70218); assay: HPK1 protein degradation in mouse pan T cell (western blot); assay type: cell-based; conditions: 18 h incubation
T3 construct: the CD3+ T cell population was isolated from spleenocytes of mice; endogenous in cells; host or cells: primary mouse splenic CD3+ (pan) T cells
T3 sequence (P70218 1-827): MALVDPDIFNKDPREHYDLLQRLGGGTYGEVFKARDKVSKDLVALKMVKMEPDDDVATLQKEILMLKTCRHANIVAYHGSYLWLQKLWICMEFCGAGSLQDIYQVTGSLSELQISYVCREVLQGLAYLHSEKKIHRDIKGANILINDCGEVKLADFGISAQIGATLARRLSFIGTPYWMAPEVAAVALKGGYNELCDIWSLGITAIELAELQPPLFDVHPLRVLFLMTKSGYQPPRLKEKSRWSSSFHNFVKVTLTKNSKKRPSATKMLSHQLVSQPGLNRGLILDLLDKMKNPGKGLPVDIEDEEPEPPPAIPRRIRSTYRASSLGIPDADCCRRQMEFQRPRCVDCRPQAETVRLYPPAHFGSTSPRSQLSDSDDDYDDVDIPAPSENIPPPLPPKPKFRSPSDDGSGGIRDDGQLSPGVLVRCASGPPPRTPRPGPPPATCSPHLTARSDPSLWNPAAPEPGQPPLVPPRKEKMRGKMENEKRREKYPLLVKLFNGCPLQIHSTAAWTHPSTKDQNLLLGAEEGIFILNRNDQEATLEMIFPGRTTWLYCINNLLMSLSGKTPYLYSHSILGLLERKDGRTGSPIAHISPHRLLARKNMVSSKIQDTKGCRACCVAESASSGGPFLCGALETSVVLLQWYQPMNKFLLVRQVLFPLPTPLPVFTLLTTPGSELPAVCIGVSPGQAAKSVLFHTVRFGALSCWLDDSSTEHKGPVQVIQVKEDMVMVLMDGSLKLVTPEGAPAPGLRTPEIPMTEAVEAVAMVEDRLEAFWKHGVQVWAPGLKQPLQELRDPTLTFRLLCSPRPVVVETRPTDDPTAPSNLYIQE
Description: HPK1 protein degradation in mouse pan T cell: the CD3+ T cell population was isolated from spleenocytes of mice by using Pan T cell isolation kit from Miltenyi Biotec (130-095-130) following manufacture's instruction. The isolated T cells were then incubated with a variety of concentrations of compound. After incubation for 18 h, the cells were collected and lysed. The protein concentration was determined by BCA protein assay kit from Thermo (23227). The HPK1 protein level was determined by western blots, using anti-human HPK1 polyclonal antibody from CST (4472). Proteins were loaded into each well of the pre-casting gels and subjected to electrophoretic separation by SDS-PAGE. The protein resolved by SDS-PAGE were transferred to PVDF, blocked by 5% skim milk and probed with anti-human HPK1 antibody or β-actin antibody from CST (3700S), using following standard western blotting procedure.

[4] = test system: HPK1 p-SLP-76; assay: HPK1 p-SLP-76 inhibition assay in human PBMC (HTRF); assay type: cell-based; conditions: 6 h compound, anti-CD3 stimulation 20 min
Description: Human PBMC were purchased from OriCells (FPB004F-C). Before compound treatment, PBMC were starved in PRMI-1640 medium supplemented with 0.5% FBS overnight. The cell density was adjusted to 1*10^7 cells/mL in assay medium (RPMI-1640 no phenol red with 0.5% FBS) and 16 μL cell suspension was transferred per well to a 384-well plate (Corning #3765). 6× solution of test compound was prepared in assay medium and 4 μL was added per well to the 384-well plate. The plate was then incubated at 37° C., 5% CO2 for 6 h. PBMC in 384-well plate were stimulated with anti-CD3 (BD Biosciences #555329, final conc. is 10 ug/mL) for 20 min at 37° C., 5% CO2 by adding 4 μL 6× antibody solution per well. Phospho-SLP76 HTRF kit was purchased from Cisbio (63ADK076PEH). 8 μL 4× Lysis Buffer was added to 384-well plate after anti-CD3 stimulation. The plate was centrifuged at 1,000 rpm for 1 min, shaken at 250 rpm for 60 min and centrifuged again at 1,000 rpm for 5 min. Afterwards the cell lysates were transferred to the assay plate (Greiner #784075) with 16 μL per well. 4 μL detection antibody mix per well prepared in Detection Buffer was added to the assay plate, followed by centrifugation at 1,000 rpm for 1 min and incubation at 25° C. overnight.

Row | SMILES | IC50 [1] [µM] | Dmax [2] [%] | Dmax [3] [%] | IC50 [4] [µM]
1 | CCc1c[nH]c2ncc(-c3cccc(N4CCN(CCC(=O)N5CCN(c6cc7c(cc6F)C(=O)N(C6CCC(=O)NC6=O)C7=O)CC5)CC4=O)c3)c(Cl)c12 (stereo not drawn) [Example 30, 5-(4-(3-(4-(3-(4-chloro-3-ethyl-1H-pyrrolo[2,3-b]pyridin-5-yl)phenyl)-3-oxopiperazin-1-yl)propanoyl)piperazin-1-yl)-2-(2,6-dioxopiperidin-3-yl)-6-fluoroisoindoline-1,3-dione] | 0.01 to 0.1 | 61 | 80 | –
2 | O=C1CCC(N2C(=O)c3ccc(N4CCC(OCC(=O)N5CCN(c6cccc(-c7cnc8[nH]cc(C9CC9)c8c7Cl)c6)C(=O)C5)CC4)cc3C2=O)C(=O)N1 (stereo not drawn) [Example 31] | 0.01 to 0.1 | 98 | 95 | –
3 | CCc1c[nH]c2ncc(-c3cccc(N4CCN(C(=O)CCOC5CCN(c6ccc7c(c6)C(=O)N(C6CCC(=O)NC6=O)C7=O)CC5)CC4=O)c3)c(Cl)c12 (stereo not drawn) [Example 32] | 0.01 to 0.1 | 78 | 90 | –
4 | O=C1CCC(N2C(=O)c3cc(F)c(N4CCC(OCCCN5CCN(c6cccc(-c7cnc8[nH]cc(CC(F)F)c8c7Cl)c6)C(=O)C5)CC4)cc3C2=O)C(=O)N1 (stereo not drawn) [Example 39, 5-(4-(3-(4-(3-(4-chloro-3-(2,2-difluoroethyl)-1H-pyrrolo[2,3-b]pyridin-5-yl)phenyl)-3-oxopiperazin-1-yl)propoxy)piperidin-1-yl)-2-(2,6-dioxopiperidin-3-yl)-6-fluoroisoindoline-1,3-dione] | 0.1 to 1 | 85 | 80 | –
5 | CC(COC1CCN(c2cc3c(cc2F)C(=O)N(C2CCC(=O)NC2=O)C3=O)CC1)N1CCN(c2cccc(-c3cnc4[nH]cc(C5CC5)c4c3Cl)c2)C(=O)C1 (stereo not drawn) [Example 49, 5-(4-(2-(4-(3-(4-chloro-3-cyclopropyl-1H-pyrrolo[2,3-b]pyridin-5-yl)phenyl)-3-oxopiperazin-1-yl)propoxy)piperidin-1-yl)-2-(2,6-dioxopiperidin-3-yl)-6-fluoroisoindoline-1,3-dione] | 0.1 to 1 | < 50 | – | –
6 | CCc1c[nH]c2ncc(-c3cccc(N4CCN(C(=O)CCN5CCN(C(=O)c6ccc(C)c(N7CCC(=O)NC7=O)c6)CC5)CC4=O)c3)c(Cl)c12 [Example 50, 1-(5-(4-(3-(4-(3-(4-chloro-3-ethyl-1H-pyrrolo[2,3-b]pyridin-5-yl)phenyl)-3-oxopiperazin-1-yl)-3-oxopropyl)piperazine-1-carbonyl)-2-methylphenyl)dihydro pyrimidine-2,4 (1H,3H)-dione] | ≤ 0.01 | – | 80 | > 10
7 | O=C1CCC(N2Cc3cc(C4=CC5CCC(C4)N5CCCN4CCN(c5cccc(-c6cnc7[nH]cc(C8CC8)c7c6Cl)c5)C(=O)C4)ccc3C2=O)C(=O)N1 (stereo not drawn) [Example 64, 3-(5-(8-(3-(4-(3-(4-chloro-3-cyclopropyl-1H-pyrrolo[2,3-b]pyridin-5-yl)phenyl)-3-oxopiperazin-1-yl)propyl)-8-azabicyclo[3.2.1]oct-2-en-3-yl)-1-oxoisoindolin-2-yl)piperidine-2,6-dione] | ≤ 0.01 | 70 | – | –
8 | Cn1nc(N2CCC(=O)NC2=O)c2ccc(C3CCN(CCCN4CCN(c5cccc(-c6cnc7[nH]cc(C8CC8)c7c6Cl)c5)C(=O)C4)CC3)cc21 [Example 77, 1-(6-(1-(3-(4-(3-(4-chloro-3-cyclopropyl-1H-pyrrolo[2,3-b]pyridin-5-yl)phenyl)-3-oxopiperazin-1-yl)propyl)piperidin-4-yl)-1-methyl-1H-indazol-3-yl)dihydro pyrimidine-2,4 (1H,3H)-dione] | ≤ 0.01 | – | 95 | ≤ 0.3

The next lines start with results.

Row | IC50 [1] [µM] | Dmax [2] [%] | Dmax [3] [%] | SMILES | IC50 [4] [µM]
9 | 0.01 to 0.1 | 60 | – | CCc1c[nH]c2ncc(-c3cccc(N4CCN(C(=O)CCN5CCN(c6ccc7c(c6)C(=O)N(C6CCC(=O)NC6=O)C7=O)CC5)CC4=O)c3)c(Cl)c12 (stereo not drawn) [Example 21, 5-(4-(3-(4-(3-(4-chloro-3-ethyl-1H-pyrrolo[2,3-b]pyridin-5-yl)phenyl)-3-oxopiperazin-1-yl)-3-oxopropyl)piperazin-1-yl)-2-(2,6-dioxopiperidin-3-yl)isoindoline-1,3-dione] | –
10 | 0.01 to 0.1 | 86 | 91 | CCc1c[nH]c2ncc(-c3cccc(N4CCN(CCOC5CCN(c6cc7c(cc6F)C(=O)N(C6CCC(=O)NC6=O)C7=O)CC5)CC4=O)c3)c(Cl)c12 (stereo not drawn) [Example 26] | –
11 | 0.01 to 0.1 | 30 | 90 | CCc1c[nH]c2ncc(-c3cccc(N4CCN(CC5CCN(c6cc7c(cc6F)C(=O)N(C6CCC(=O)NC6=O)C7=O)CC5)CC4=O)c3)c(Cl)c12 (stereo not drawn) [Example 38, 5-(4-((4-(3-(4-chloro-3-ethyl-1H-pyrrolo[2,3-b]pyridin-5-yl)phenyl)-3-oxopiperazin-1-yl)methyl)piperidin-1-yl)-2-(2,6-dioxopiperidin-3-yl)-6-fluoro isoindoline-1,3-dione] | –
12 | 0.01 to 0.1 | 88 | 95 | O=C1CCC(N2C(=O)c3cc(F)c(N4CCC(OCCCN5CCN(c6cccc(-c7cnc8[nH]cc(C9CC9)c8c7Cl)c6)C(=O)C5)CC4)cc3C2=O)C(=O)N1 (stereo not drawn) [Example 40, 5-(4-(3-(4-(3-(4-chloro-3-cyclopropyl-1H-pyrrolo[2,3-b]pyridin-5-yl)phenyl)-3-oxopiperazin-1-yl)propoxy)piperidin-1-yl)-2-(2,6-dioxopiperidin-3-yl)-6-fluoroisoindoline-1,3-dione] | –
13 | 0.01 to 0.1 | 90 | 95 | O=C1CCC(N2C(=O)c3cc(F)c(N4CCN(CCCN5CCN(c6cccc(-c7cnc8[nH]cc(CC(F)F)c8c7Cl)c6)C(=O)C5)CC4)cc3C2=O)C(=O)N1 (stereo not drawn) [Example 41] | –
14 | 0.01 to 0.1 | 40 | 95 | CN(CC(=O)N1CCN(c2cccc(-c3cnc4[nH]cc(C5CC5)c4c3Cl)c2)C(=O)C1)C1CCN(c2cc3c(cc2F)C(=O)N(C2CCC(=O)NC2=O)C3=O)CC1 (stereo not drawn) [Example 42] | –
